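Method: 48-hour compound exposure of cells in 96-well plates, five concentrations, linear interpolation of endpoints. TGI: total growth inhibition.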
Columns and labels:
Assay in all cases: DTP human tumour cell line panel, 48 h
HL-60(TB) leukemia = system: HL-60(TB) leukemia
MCF7 breast = system: MCF7 breast
OVCAR-4 ovarian = system: OVCAR-4 ovarian
SF-539 CNS = system: SF-539 CNS
HOP-18 NSCLC = system: HOP-18 NSCLC
LOX IMVI melanoma = system: LOX IMVI melanoma
A498 renal = system: A498 renal
XF 498 CNS = system: XF 498 CNS
COLO 205 colon = system: COLO 205 colon
KM20L2 colon = system: KM20L2 colon
UACC-257 melanoma = system: UACC-257 melanoma
HOP-92 NSCLC = system: HOP-92 NSCLC
DMS 273 small cell lung = system: DMS 273 small cell lung
DMS 114 small cell lung = system: DMS 114 small cell lung
DU-145 prostate = system: DU-145 prostate
PC-3 prostate = system: PC-3 prostate
T-47D breast = system: T-47D breast
MDA-MB-435 = system: MDA-MB-435
BT-549 breast = system: BT-549 breast
MDA-MB-231 breast = system: MDA-MB-231 breast

In the case of O=S(=O)(O)c1ccc(N=Nc2ccc(N=Nc3ccc(/C=C/c4ccc(N=[N+]([O-])c5ccc(/C=C/c6ccc(N=Nc7ccc(N=Nc8ccc(S(=O)(=O)O)cc8)c8ccccc78)cc6S(=O)(=O)O)c(S(=O)(=O)O)c5)cc4S(=O)(=O)O)c(S(=O)(=O)O)c3)c3ccccc23)cc1, the TGI (HL-60(TB) leukemia) is reported as > 100 µM, the TGI (MCF7 breast) is reported as > 100 µM and the TGI (OVCAR-4 ovarian) is reported as > 100 µM. For the same molecule, the TGI (SF-539 CNS) was > 100 µM, the TGI (HOP-18 NSCLC) was > 100 µM and the TGI (LOX IMVI melanoma) was > 100 µM. The TGI (A498 renal) was > 100 µM, the TGI (XF 498 CNS) was > 100 µM and the TGI (COLO 205 colon) was > 100 µM. For the same molecule, the TGI (KM20L2 colon) was > 100 µM, the TGI (UACC-257 melanoma) was > 100 µM and the TGI (HOP-92 NSCLC) was > 100 µM. The TGI (DMS 273 small cell lung) was > 100 µM and the TGI (DMS 114 small cell lung) was > 100 µM.

Molecule O=C(COC(=O)c1ccccc1)c1ccc(Br)cc1 has a TGI (HL-60(TB) leukemia) of 48.2 µM, a TGI (DU-145 prostate) of 64.6 µM and a TGI (MCF7 breast) of 24.8 µM. It also gave a TGI (PC-3 prostate) of 38.7 µM, a TGI (SF-539 CNS) of 28.4 µM and a TGI (T-47D breast) of 62.6 µM. For the same molecule, the TGI (LOX IMVI melanoma) was 11.2 µM, the TGI (A498 renal) was 29.5 µM and the TGI (COLO 205 colon) was 26.5 µM. The TGI (MDA-MB-435) was 20.4 µM, the TGI (BT-549 breast) was 21.1 µM and the TGI (UACC-257 melanoma) was 28.8 µM. The TGI (HOP-92 NSCLC) was 30.5 µM and the TGI (MDA-MB-231 breast) was 30.5 µM.

With C/C(=C1/N=C(c2cc([N+](=O)[O-])ccc2Cl)N(C2=CC=C(Cl)CC2)C1=O)c1cc2ccccc2oc1=O the TGI (HL-60(TB) leukemia) was > 100 µM, the TGI (OVCAR-4 ovarian) was > 100 µM and the TGI (SF-539 CNS) was > 100 µM. For the same molecule, the TGI (HOP-18 NSCLC) was > 100 µM, the TGI (LOX IMVI melanoma) was > 100 µM and the TGI (A498 renal) was > 100 µM. For the same molecule, the TGI (COLO 205 colon) was > 100 µM, the TGI (KM20L2 colon) was > 100 µM and the TGI (UACC-257 melanoma) was > 100 µM. The TGI (DMS 114 small cell lung) was > 100 µM.

Work on CC1=CC[C@H](C)C(C)(C)C1/C=C/C(C)=C/CC[C@@]1(CO)[C@H](CCCO)/C(=C(/C)C=O)CC[C@]1(C)O (stereo partly specified) yielded a TGI (HL-60(TB) leukemia) of 7.79 µM, a TGI (SF-539 CNS) of 20.8 µM and a TGI (HOP-18 NSCLC) of 28.9 µM. The TGI (LOX IMVI melanoma) was 15.7 µM, the TGI (XF 498 CNS) was 19.9 µM and the TGI (COLO 205 colon) was 3.51 µM. The TGI (KM20L2 colon) was 8.23 µM, the TGI (UACC-257 melanoma) was 28.8 µM and the TGI (DMS 273 small cell lung) was 13.9 µM.

With Cc1cc(S(N)(=O)=O)c(S/C(=N\Nc2ccc([N+](=O)[O-])cc2)c2ccc(Cl)cc2)cc1Cl the TGI (HL-60(TB) leukemia) was > 100 µM, the TGI (DU-145 prostate) was 5.51 µM and the TGI (MCF7 breast) was 4.59 µM. The TGI (OVCAR-4 ovarian) was 4.48 µM, the TGI (SF-539 CNS) was 4.19 µM and the TGI (T-47D breast) was > 100 µM. The TGI (A498 renal) was 21.8 µM, the TGI (COLO 205 colon) was > 100 µM and the TGI (MDA-MB-435) was 6.88 µM. For the same molecule, the TGI (BT-549 breast) was 35.4 µM, the TGI (UACC-257 melanoma) was 8.7 µM and the TGI (HOP-92 NSCLC) was 5.4 µM. It also gave a TGI (MDA-MB-231 breast) of 8.27 µM.

For CCCCN(CCCC)c1ccc(N=Nc2ccc(S(=O)(=O)O)cc2)cc1, the TGI (HL-60(TB) leukemia) was 53.1 µM, the TGI (DU-145 prostate) was > 100 µM and the TGI (MCF7 breast) was 49.6 µM. For the same molecule, the TGI (PC-3 prostate) was 97.1 µM, the TGI (OVCAR-4 ovarian) was 74.7 µM and the TGI (SF-539 CNS) was 33.4 µM. For the same molecule, the TGI (T-47D breast) was 55.5 µM, the TGI (LOX IMVI melanoma) was 42.8 µM and the TGI (A498 renal) was > 100 µM. The TGI (COLO 205 colon) was 37.8 µM, the TGI (MDA-MB-435) was > 100 µM and the TGI (BT-549 breast) was > 100 µM. The TGI (UACC-257 melanoma) was > 100 µM, the TGI (HOP-92 NSCLC) was 22.1 µM and the TGI (MDA-MB-231 breast) was 64.7 µM.

For C=CCN1C(=O)/C(=C/c2cccs2)N=C1SC1OC(COC(=O)c2ccccc2)C(OC(=O)c2ccccc2)C1OC(=O)c1ccccc1 (stereo unspecified), the TGI (HL-60(TB) leukemia) was > 100 µM, the TGI (DU-145 prostate) was > 100 µM and the TGI (MCF7 breast) was > 100 µM. For the same molecule, the TGI (PC-3 prostate) was > 100 µM, the TGI (OVCAR-4 ovarian) was > 100 µM and the TGI (SF-539 CNS) was > 100 µM. The TGI (LOX IMVI melanoma) was > 100 µM, the TGI (A498 renal) was > 100 µM and the TGI (COLO 205 colon) was > 100 µM. For the same molecule, the TGI (MDA-MB-435) was > 100 µM, the TGI (BT-549 breast) was > 100 µM and the TGI (UACC-257 melanoma) was > 100 µM. For the same molecule, the TGI (HOP-92 NSCLC) was > 100 µM and the TGI (MDA-MB-231 breast) was > 100 µM.

With COc1cccc(NC(=O)N/C(=C/c2ccc(N(CCC#N)CCC#N)cc2)NC(=O)c2cc([N+](=O)[O-])ccc2Cl)c1 the TGI (OVCAR-4 ovarian) was > 100 µM, the TGI (SF-539 CNS) was > 100 µM and the TGI (HOP-18 NSCLC) was > 100 µM. The TGI (LOX IMVI melanoma) was > 100 µM, the TGI (XF 498 CNS) was > 100 µM and the TGI (COLO 205 colon) was > 100 µM. The TGI (KM20L2 colon) was > 100 µM, the TGI (HOP-92 NSCLC) was > 100 µM and the TGI (DMS 273 small cell lung) was > 100 µM. The TGI (DMS 114 small cell lung) was > 100 µM.

Nc1ccccc1Sc1ccc(Cl)cc1 was tested, and the TGI (HL-60(TB) leukemia) was 53.3 µM, the TGI (OVCAR-4 ovarian) was > 100 µM and the TGI (SF-539 CNS) was > 100 µM. For the same molecule, the TGI (HOP-18 NSCLC) was > 100 µM, the TGI (LOX IMVI melanoma) was > 100 µM and the TGI (A498 renal) was > 100 µM. The TGI (COLO 205 colon) was 44.1 µM, the TGI (KM20L2 colon) was 42.9 µM and the TGI (UACC-257 melanoma) was 54.1 µM. It also gave a TGI (HOP-92 NSCLC) of 41.1 µM, a TGI (DMS 273 small cell lung) of 72.5 µM and a TGI (DMS 114 small cell lung) of 59.3 µM.

Source: PubChem BioAssay (NCI)
